Columns and labels:
Assay type in all cases: cell-based
[1] = tested on: Human ES cells (KhES-1 strain); test: Addition conditions of Wnt signal transduction pathway inhibiting substance in production of cell mass containing pituitary tissue; bright field observation; conditions: day 28; for size and condition of cell mass: 2 μM IWP-2, 5 μM KY02111, 1 μM XAV939, 1 μM IWR1e; for nonneural epithelial structure on surface of cell mass: IWP-2 2 μM, KY02111 5 μM, C-59 500 nM, LGK974 5 μM, XAV939 1 μM, IWR1-endo 1 μM added at start, with SB-431542, BMP4, SAG
Experimental: (§1) Human ES cells (KhES-1 strain) were cultured under feeder-free conditions according to the method described in Scientific Reports, 4, 3594 (2014). As the feeder-free medium, StemFit medium was used and, as the feeder-free scaffold, Laminin 511-E8 was used.
(§2) Specific maintenance culturing operation was performed in the same manner as in Example 1.
Thereafter, suspension culturing in a 96 well plate was performed under conditions similar to those in Example 1 except that the kind or the presence or absence of the Wnt signal transduction pathway inhibiting substance to be added at the start of suspension culturing was changed. As the Wnt signal transduction pathway inhibiting substances, IWP-2, C-59 (manufactured by Cayman Chemicals, 500 nM), LGK974 (manufactured by Cayman Chemicals, 5 μM) which are PORCN inhibitors; XAV939 (manufactured by Cayman Chemicals, 1 μM), IWR1-endo (manufactured by Merck Millipore, 1 μM) which are TANK inhibitors, and KY02111 (manufactured by Cayman Chemicals, 5 μM) whose action mechanism has not been reported were added at the start of the suspension culturing, and the condition with the addition of DMSO alone as a control of no addition of a Wnt signal transduction pathway inhibiting substance was performed.
A serum-free medium not containing Y27632 and containing each Wnt signal transduction pathway inhibiting substance, SB-431542, BMP4, and SAG was added at 100 μl per well on day 2 from the start of suspension culturing. BMP4 was added at 3 nM to the medium so that the final concentration in the well would be 1.5 nM, and SAG was added at 4 μM to the medium so that the final concentration in the well would be 2 μM.
A half amount of the medium was changed with a serum-free medium not containing Y27632 or BMP4 and containing each Wnt signal transduction pathway inhibiting substance, SB-431542 and SAG on days 6, 10, 13, 17, 21, 24 from the start of suspension culturing. In addition to the above-mentioned conditions, the condition in which neither SB431542 nor a Wnt signal transduction pathway inhibiting substance is added during suspension culturing was also performed.
Bright field observation was performed using an inverted microscope (manufactured by KEYENCE CORPORATION, BIOREVO) on day 28 from the start of suspension culturing (FIGS. 7A-H).

[2] = tested on: Human ES cells (KhES-1 strain); test: TGFβ signal transduction pathway inhibitory conditions in production of cell mass containing pituitary tissue; conditions: IWP-2 added, no TGFβ signal transduction pathway inhibiting substance; day 28
Experimental: as §1, §2
Thereafter, suspension culturing in a 96 well plate was performed under conditions similar to those in Example 1 except that the concentration and kind of the TGFβ signal transduction pathway inhibiting substance to be added at the start of the suspension culturing are changed. As the TGFβ signal transduction pathway inhibiting substance therefor, SB431542 (1 or 10 μM), A 83-01 (manufactured by Cayman Chemicals, 1 or 10 μM), and RepSox (manufactured by Cayman Chemicals, 1 μM) were added at respective concentration conditions.
Thereafter, a serum-free medium not containing Y27632 and containing IWP-2, each TGFβ signal transduction pathway inhibiting substance, BMP4, and SAG was added at 100 μl per well on day 2 from the start of suspension culturing. BMP4 was added at 3 nM to the medium so that the final concentration in the well would be 1.5 nM, and SAG was added at 4 μM to the medium so that the final concentration in the well would be 2 μM.
A half amount of the medium was changed with a serum-free medium not containing Y27632 or BMP4 and containing IWP-2, each TGFβ signal transduction pathway inhibiting substance, and SAG on days 6, 10, 13, 17, 21, 24 from the start of suspension culturing. In addition to the above-mentioned conditions, the condition in which neither a TGFβ signal transduction pathway inhibiting substance nor IWP-2 is added during suspension culturing, and the condition in which IWP-2 is added and a TGFβ signal transduction pathway inhibiting substance is not added during suspension culturing were also performed.

[3] = tested on: Human ES cells (KhES-1 strain); test: Effect of compound treatment before differentiation induction in production of cell mass containing pituitary tissue; bright field observation; conditions: pre-treatment with 5 μM SB-431542 alone; day 28
Experimental: Human ES cells (KhES-1 strain) were cultured under feeder-free conditions according to the method described in Scientific Reports, 4, 3594 (2014). As the feeder-free medium, StemFit medium was used and, as the feeder-free scaffold, Laminin 511-E8 was used. Specific maintenance culturing operation was performed in the same manner as in Example 1. As a pre-treatment for differentiation induction of the cultured cells, cells under 4 conditions were maintenance cultured under conditions in which, condition in which nothing is simultaneously added with medium change with […] medium (Control), conditions in which 300 nM SAG alone is added (+300 nM SAG), conditions in which 5 μM SB-431542 alone is added (+5 μM SB-431542), and conditions in which SAG and SB431542 are simultaneously added (+SAG/SB) at 6 days after seeding. The next day of the above-mentioned treatment, human ES cells under 4 conditions that reached subconfluence were each subjected to differentiation induction by suspension culturing into a cell mass containing pituitary tissue according to the method described in Example 1. Bright field observation was performed under an inverted microscope on day 28 from the start of suspension culturing (FIGS. 6A-D).

[4] = tested on: Human iPS cells (HC-6 #10 strain); test: Cell mass from human iPS cells using Wnt signal transduction pathway activating substance (CHIR99021) and inhibiting substance in combination; bright field observation and immunostaining
Experimental: Human iPS cells (HC-6 #10 strain, obtained from RIKEN) were cultured under feeder-free conditions according to the method described in Scientific Reports, 4, 3594 (2014). As the feeder-free medium, StemFit medium was used and, as the feeder-free scaffold, Laminin 511-E8 was used. Specific maintenance culturing operation was performed in the same manner as in Example 1. The thus-prepared subconfluent human iPS cells were washed with PBS, subjected to an enzyme treatment using Accumax, a serum-free medium for differentiation induction was added, and the cells were scraped from the surface of the culture dish by using a cell scraper and dispersed into single cells by pipetting. Thereafter, the aforementioned human ES cells dispersed into single cells were suspended in 100 μl of a serum-free medium at 9×10^3 cells per well of a non-cell-adhesive 96-well culture plate (PrimeSurface […]-bottom plate, manufactured by SUMITOMO BAKELITE), and cultured in suspension under the conditions of 37° C., 5% CO2. As the serum-free medium ([…]) therefor, a serum-free medium which is a 1:1 mixture of F-12+Glutamax medium (manufactured by Thermo Fisher Scientific) and IMDM+Glutamax medium (manufactured by Thermo Fisher Scientific) supplemented with 5% Knockout Serum Replacement (manufactured by Thermo Fisher Scientific), 450 μM 1-monothioglycerol (manufactured by Wako Pure Chemical Industries, Ltd.), 1× Chemically defined lipid concentrate (manufactured by Thermo Fisher Scientific), 50 unit/ml penicillin-50 μg/ml streptomycin (manufactured by Nacalai Tesque) was used. At the time of the start of suspension culturing (day 0 from the start of suspension culturing, start of step 1), Y27632 (final concentration 20 μM), SB-431542 (TGFβ signal transduction pathway inhibiting substance, manufactured by Wako Pure Chemical Industries, Ltd., 1 μM), and IWP-2 (Wnt signal transduction pathway inhibiting substance, manufactured by Tocris Bioscience, 2 μM) were added to the aforementioned serum-free medium. In addition, conditions in which CHIR99021 (manufactured by Cayman Chemical) is added at 300 nM, 1 μM, 3 μM as a Wnt signal transduction pathway activating substance, and conditions in which DMSO alone is added as a control of no addition were set, totaling in 4 conditions. In the present Example, CHIR99021 is sometimes referred to as CHIR. A serum-free medium not containing Y27632 and containing SB-431542, IWP-2, BMP4 (BMP signal transduction pathway activating substance) and CHIR99021 under each condition set was added at 100 μl per well on day 2 from the start of suspension culturing. BMP4 was added at 3 nM to the medium so that the final concentration in the well would be 1.5 nM. As a method for inducing cell mass containing nonneural epithelium and placode, a half amount of the medium was changed with a serum-free medium not containing Y27632 or BMP4, and containing IWP-2, SB-431542, K02288 (BMP signal transduction pathway inhibiting substance, manufactured by AdooQ Bioscience), FGF2-TS (FGF signal transduction pathway activating substance, manufactured by HumanZyme) and Heparin Sodium (manufactured by FUJIFILM Wako Pure Chemical Corporation) on day 3 from the start of suspension culturing. K02288, FGF2, and Heparin Sodium were respectively added at 2 μM, 40 ng/ml, and 20 μg/ml to the medium so that the final concentration in the well would be respectively 1 μM, 20 ng/ml, and 10 μg/ml. A half amount of the medium was changed on day 6 and day 10 from the start of suspension culturing. On day 13 from the start of suspension culturing, bright field observation was performed under an inverted microscope (FIGS. 11A-D). […] The above-mentioned cell masses on day 13 of the culturing were fixed by a method similar to that in Example 1 to prepare cryosections. […]

[5] = 300 nM CHIR vs no addition, day 13

SMILES: Cc1ccc2nc(NC(=O)CSc3nc4c(c(=O)n3-c3ccccc3)SCC4)sc2c1 [IWP-2]
- size and condition of cell mass [1]: large cell masses in good condition were formed
- nonneural epithelial structure on surface of cell mass [1]: cell masses having a nonneural epithelial structure on the surface were formed
- mesenchymal cell between outer nonneural epithelial tissue and inner neuroepithelial tissue [2]: a mesenchymal cell could not be confirmed
- nonneural epithelial structure on surface of cell mass [2]: a nonneural epithelial structure was formed on the surface of the cell mass
- size of cell mass [2]: the formed cell mass was small

SMILES: NC(=O)c1ccc(-c2nc(-c3ccc4c(c3)OCO4)c(-c3ccccn3)[nH]2)cc1 [SB431542, 4-(5-benzol[1,3]dioxol-5-yl-4-pyridin-2-yl-1H-imidazol-2-yl)-benzamide]
- cell mass formation [3]: larger cell masses containing pituitary tissues were formed
- nonneural epithelial tissue on surface of cell mass ([1]; SB431542 added, no Wnt signal transduction pathway inhibiting substance): nonneural epithelial tissue was not formed on the surface of the cell masses

SMILES: Cc1cc(-c2ccc(CC(=O)Nc3ccc(-c4cccnc4)cc3)cc2)ccn1 [C59]
- nonneural epithelial structure on surface of cell mass [1]: cell masses having a nonneural epithelial structure on the surface were formed

SMILES: COc1ccc(CCC(=O)Nc2nc3ccc(Cl)cc3s2)cc1OC [KY02111]
- size and condition of cell mass [1]: large cell masses in good condition were formed
- nonneural epithelial structure on surface of cell mass [1]: cell masses having a nonneural epithelial structure on the surface were formed

SMILES: Cc1cc(-c2ncc(CC(=O)Nc3ccc(-c4cnccn4)cn3)cc2C)ccn1 [LGK974]
- nonneural epithelial structure on surface of cell mass [1]: cell masses having a nonneural epithelial structure on the surface were formed

SMILES: O=C(Nc1cccc2cccnc12)c1ccc(N2C(=O)[C@@H]3[C@H](C2=O)[C@@H]2C=C[C@H]3C2)cc1 [IWR1-endo]
- size and condition of cell mass [1]: large cell masses in good condition were formed
- nonneural epithelial structure on surface of cell mass [1]: cell masses having a nonneural epithelial structure on the surface were formed

SMILES: Cc1c[nH]c(-c2cnc(NCCNc3ccc(C#N)cn3)nc2-c2ccc(Cl)cc2Cl)n1 [CHIR99021]
- neural tissue in the inside [4, 5]: survival of neural tissue in the inside and epithelial formation were promoted
- size of cell mass [4, 5]: larger cell masses were formed
- marker-positive tissue formation (immunostaining) ([4]; 300 nM, 1 μM CHIR (also no addition), day 13): formation of Dlx5, Six1, E-Cadherin, N-Cadherin positive nonneural epithelium or placode precursor tissue
- nonneural epithelium thickening and placode formation ([4]; 1 μM CHIR, day 13): thickening of nonneural epithelium on the outside and formation of placode were suppressed
- formation of nonneural epithelial tissue on surface (bright field) ([4]; 3 μM CHIR99021, day 13): formation of nonneural epithelial tissue on the surface of cell mass is inhibited
- formation of nonneural epithelium (immunostaining) ([4]; 3 μM CHIR, day 13): Formation of nonneural epithelium was not observed
- growth of cell masses (bright field) ([4]; CHIR99021 300 nM, 1 μM, 3 μM in presence of IWP-2, day 13): cell masses grow in a concentration-dependent manner
- level effective for growth of whole cell masses, survival of neural tissue in the inside and promotion of epithelial formation ([4]; in the presence of IWP-2): not more than 3 μM

SMILES: Oc1nc(-c2ccc(C(F)(F)F)cc2)nc2c1CSCC2 [XAV939]
- size and condition of cell mass [1]: large cell masses in good condition were formed
- nonneural epithelial structure on surface of cell mass [1]: cell masses having a nonneural epithelial structure on the surface were formed

Source: patent US12485147B2, “Method for producing cell mass including pituitary tissue, and cell mass thereof” (SUMITOMO CHEMICAL COMPANY, LIMITED, priority 2017, dated 2025)
